Experimental data as given in ChEMBL document CHEMBL1157942, “Bioactive diterpenes from the fruits of Detarium microcarpum” (2006).

These molecules were tested on Cladosporium cucumerinum (assay: Antifungal activity against Cladosporium cucumerinum after 3 days).
Format: functional
For `C/C(=C/C(=O)O)CC[C@]1(C)[C@@H](C)CC[C@]2(C)[C@H]1CC[C@@H](O)[C@@]2(C)O`, the Activity was 10 µg. `CC1=CC(=O)C[C@H]2[C@](C)(CC/C(C)=C/C(=O)O)[C@@H](C)CC[C@]12C` was tested, and the Activity was >100 µg. `C/C(=C\C(=O)O)CC[C@@]1(C)[C@H]2CC[C@H]3O[C@@]3(C)[C@@]2(C)CC[C@@H]1C` was tested, and the Activity was 10 µg. `CC1=CC(=O)C[C@H]2[C@](C)(CC/C(C)=C/C(=O)O)[C@H](C)CC[C@@]12C` gave an Activity of 100 µg. For `C/C(=C\C(=O)O)CC[C@]1(C)[C@H](C)CC[C@]2(C)[C@H]1CC[C@H](O)[C@@]2(C)O`, the Activity was >100 µg. `C=C1CC[C@@H]2C(C)(C)CCC[C@@]2(C)[C@@H]1CC/C(C)=C/C(=O)O` [COPALIC ACID] was tested, and the Activity was >100 µg. `Clc1ccc(COC(Cn2ccnc2)c2ccc(Cl)cc2Cl)c(Cl)c1` (configuration not stated) [MICONAZOLE] gave an Activity of 1 µg.
